Measurements reported in patent US20220235094A1, “CRYSTALLINE FORMS OF ANTIDEPRESSANT DRUG SAGE-217 AND PREPARATION METHOD THEREFOR” (priority 2019, published 2022).
“Also recorded” adds a separate entry of the source.

What was measured:
[1] = Crystalline form stability as exposed powder and in sealed vial; settings: for crystalline form stability in a sealed vial: 25° C./45% RH
[2] = Stability compared between crystalline forms
[3] = Thermodynamic solubility test in water; assay type: physicochemical; settings: 25° C., 24 hours; for Area: HPLC
Method: Thermodynamic solubility test: the solid powder was added to water to a saturated solution, and then the suspension liquid was stirred under magnetic stirring at 25° C. for 24 hours. After completion, it was filtered with a 0.20 μm filter and analyzed by HPLC. Tests were carried out in parallel, and each group was tested twice to take the average.

[4] = Mechanical pressure stability, XRPD after 2 tons of pressure; assay type: physicochemical; settings: 2 tons of mechanical pressure; for XRPD change after mechanical pressure: 100 mg sample
Method: To further evaluate the mechanical stability of the crystalline form 04 of the present application and the crystalline form K reported in WO 2018/039378 A1, a 100 mg sample was subjected to 2 tons of mechanical pressure, and the recovered tablets were gently ground and tested by XRPD.

[5] = DVS test (moisture adsorption isotherm, hygroscopicity); assay type: physicochemical
Method: The sample of crystalline form 04 prepared in Example 1 was placed on a microbalance plate in a sealed sample chamber, and then exposed to different relative humidity, the relative humidity ranged from […] to 90%, and changed in 10% increments. At each humidity level, the sample is balanced when dm/dt is less than 0.002% within 10 minutes. The mass of the dried sample and the equilibrium mass at each humidity level were recorded, and the weight change was plotted against relative humidity, which is the moisture adsorption isotherm of the sample.
Regarding the description of hygroscopicity characteristics and the definition of hygroscopic weight gain (Appendix XIX J of Chinese Pharmacopoeia 2010 Edition, Guidelines for Hygroscopicity, with experimental conditions: 25±1° C., 80% relative humidity):
Deliquescent: sufficient water is absorbed to form liquid
Extremely hygroscopic: the increase in mass is not less than 15%
Hygroscopic: the increase in mass is less than 15% but not less than 2%
Slightly hygroscopic: the increase in mass is less than 2% but not less than 0.2%
Practical nonhygroscopic: the increase in mass is less than 0.2%.

[6] = Crystalline form stability under different temperature and humidity conditions; assay type: physicochemical
Method: The samples of crystalline form 04 prepared in Example 1 were taken, and placed at 25° C./60% humidity and 40° C./75% humidity for 1 month; placed at 2-8° C. for 9 months: after the placement, the above-mentioned samples were taken out and tested for the crystalline form.

| Structure (SMILES) | time stable in the exposed powder state [1] [h] | crystalline form stability in a sealed vial [1] | stability compared with other crystalline forms [2] | Concentration (thermodynamic solubility) ([3]; Average) [µg/mL] | Concentration (thermodynamic solubility) ([3]; Group 1) [µg/mL] | Concentration (thermodynamic solubility) ([3]; Group 2) [µg/mL] | Area ([3]; Average) [mAu*s] | Area ([3]; Group 1) [mAu*s] | Area ([3]; Group 2) [mAu*s] | XRPD change after mechanical pressure [4] | Crystalline form after storage ([6]; 0-8° C., 9 months) | Crystalline form after storage ([6]; 2-8° C., 9 months) | other results |
| --- | --- | --- | --- | --- | --- | --- | --- | --- | --- | --- | --- | --- | --- |
| C[C@@]1(O)CC[C@H]2[C@H](CC[C@@H]3[C@@H]2CC[C@]2(C)[C@@H](C(=O)Cn4cc(C#N)cn4)CC[C@@H]32)C1 [crystalline form D-2, 1-(2-((3R,5R,8R,9R,10S,13S,14S,17S)-3-hydroxy-3,13-dimethylhexadecahydro-1H-cyclopenta[a]phenanthren-17-yl)-2-oxoethyl)-1H-pyrazole-4-carbonitrile] | 18 | more than seven days | better stability than crystalline form D |  |  |  |  |  |  |  |  |  |  |
| C[C@@]1(O)CC[C@H]2[C@H](CC[C@@H]3[C@@H]2CC[C@]2(C)[C@@H](C(=O)Cn4cc(C#N)cn4)CC[C@@H]32)C1 [crystalline form 04, 1-(2-((3R,5R,8R,9R,10S,13S,14S,17S)-3-hydroxy-3,13-dimethylhexadecahydro-1H-cyclopenta[a]phenanthren-17-yl)-2-oxoethyl)-1H-pyrazole-4-carbonitrile] |  | more than seven days |  | 0.4375 | 0.4506 | 0.4243 | 12.2 | 12.6 | 11.8 | no obvious change | the crystalline form remains | form 04 | mechanical / physical stability compared with crystalline form K [4]: better than that of the crystalline form K; also recorded: better mechanical stress stability; hygroscopicity ([5]; DVS curve): no or almost no hygroscopicity; also recorded: no hygroscopicity; water absorption ([5]; DVS, 25° C., relative humidity changed from 40%/0 to 90%): 0.06%; time stable in the exposed powder state ([1]; time in words): one day; Crystalline form after storage ([6]; 25° C., 60% relative humidity, 1 month): stored stably for one month without change; also recorded: form 04; Crystalline form after storage ([6]; 40° C., 75% relative humidity, 1 month): stored stably for one month without change; also recorded: form 04 |
| C[C@@]1(O)CC[C@H]2[C@H](CC[C@@H]3[C@@H]2CC[C@]2(C)[C@@H](C(=O)Cn4cc(C#N)cn4)CC[C@@H]32)C1 [crystalline form 06, 1-(2-((3R,5R,8R,9R,10S,13S,14S,17S)-3-hydroxy-3,13-dimethylhexadecahydro-1H-cyclopenta[a]phenanthren-17-yl)-2-oxoethyl)-1H-pyrazole-4-carbonitrile] | 16 | more than seven days |  |  |  |  |  |  |  |  |  |  |  |
| C[C@@]1(O)CC[C@H]2[C@H](CC[C@@H]3[C@@H]2CC[C@]2(C)[C@@H](C(=O)Cn4cc(C#N)cn4)CC[C@@H]32)C1 [crystalline form 08, 1-(2-((3R,5R,8R,9R,10S,13S,14S,17S)-3-hydroxy-3,13-dimethylhexadecahydro-1H-cyclopenta[a]phenanthren-17-yl)-2-oxoethyl)-1H-pyrazole-4-carbonitrile] |  |  | relatively low stability |  |  |  |  |  |  |  |  |  |  |
| C[C@@]1(O)CC[C@H]2[C@H](CC[C@@H]3[C@@H]2CC[C@]2(C)[C@@H](C(=O)Cn4cc(C#N)cn4)CC[C@@H]32)C1 [crystalline form D-1, 1-(2-((3R,5R,8R,9R,10S,13S,14S,17S)-3-hydroxy-3,13-dimethylhexadecahydro-1H-cyclopenta[a]phenanthren-17-yl)-2-oxoethyl)-1H-pyrazole-4-carbonitrile] | 18 | more than seven days | better stability than crystalline form D |  |  |  |  |  |  |  | the crystalline form remains | the crystalline form did not change |  |
| C[C@@]1(O)CC[C@H]2[C@H](CC[C@@H]3[C@@H]2CC[C@]2(C)[C@@H](C(=O)Cn4cc(C#N)cn4)CC[C@@H]32)C1 [crystalline form K, 1-(2-((3R,5R,8R,9R,10S,13S,14S,17S)-3-hydroxy-3,13-dimethylhexadecahydro-1H-cyclopenta[a]phenanthren-17-yl)-2-oxoethyl)-1H-pyrazole-4-carbonitrile, reference compound] |  |  |  | 0.398 | 0.3927 | 0.4032 | 11.1 | 10.9 | 11.2 | a slight decrease in its crystallinity |  |  |  |
